Data taken from article PMC9628810 (Science (New York, N.Y.), 2022).

Legend:
[1] = molecular target: T1, NLP7 (GST-NLP7-8xHIS) (Arabidopsis thaliana, UniProt Q84TH9); experiment: microscale thermophoresis; type: binding
T1 sequence (Q84TH9 1-959): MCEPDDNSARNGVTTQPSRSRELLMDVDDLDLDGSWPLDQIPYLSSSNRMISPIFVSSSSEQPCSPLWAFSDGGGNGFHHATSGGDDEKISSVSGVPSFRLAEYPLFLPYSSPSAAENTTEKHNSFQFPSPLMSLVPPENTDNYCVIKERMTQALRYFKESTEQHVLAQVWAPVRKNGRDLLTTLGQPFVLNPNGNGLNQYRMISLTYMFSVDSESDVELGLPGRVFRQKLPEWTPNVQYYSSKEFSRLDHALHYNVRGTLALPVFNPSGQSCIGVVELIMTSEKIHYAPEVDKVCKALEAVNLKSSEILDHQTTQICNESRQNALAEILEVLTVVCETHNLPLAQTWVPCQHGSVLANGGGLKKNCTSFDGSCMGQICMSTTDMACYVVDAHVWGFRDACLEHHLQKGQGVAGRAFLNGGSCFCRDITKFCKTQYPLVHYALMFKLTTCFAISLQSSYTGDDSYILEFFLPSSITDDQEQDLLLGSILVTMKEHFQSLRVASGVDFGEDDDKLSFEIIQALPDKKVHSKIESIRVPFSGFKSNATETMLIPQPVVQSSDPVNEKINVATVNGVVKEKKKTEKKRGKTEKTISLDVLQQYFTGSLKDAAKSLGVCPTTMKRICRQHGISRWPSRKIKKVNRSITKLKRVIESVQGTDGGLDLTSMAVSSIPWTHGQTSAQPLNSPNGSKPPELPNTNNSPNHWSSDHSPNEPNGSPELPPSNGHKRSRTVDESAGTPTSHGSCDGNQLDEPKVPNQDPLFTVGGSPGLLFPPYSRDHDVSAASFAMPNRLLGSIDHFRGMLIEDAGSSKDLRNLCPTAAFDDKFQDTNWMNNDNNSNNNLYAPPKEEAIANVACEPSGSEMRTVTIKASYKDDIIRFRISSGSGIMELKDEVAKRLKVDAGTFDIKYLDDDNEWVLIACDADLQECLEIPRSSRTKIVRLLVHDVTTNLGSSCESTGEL

[2] = molecular target: T2, N-NLP7(1–581) (GST-N-NLP7-8xHIS) (Arabidopsis thaliana, UniProt Q84TH9); experiment: microscale thermophoresis; type: binding
T2 sequence (Q84TH9 1-581): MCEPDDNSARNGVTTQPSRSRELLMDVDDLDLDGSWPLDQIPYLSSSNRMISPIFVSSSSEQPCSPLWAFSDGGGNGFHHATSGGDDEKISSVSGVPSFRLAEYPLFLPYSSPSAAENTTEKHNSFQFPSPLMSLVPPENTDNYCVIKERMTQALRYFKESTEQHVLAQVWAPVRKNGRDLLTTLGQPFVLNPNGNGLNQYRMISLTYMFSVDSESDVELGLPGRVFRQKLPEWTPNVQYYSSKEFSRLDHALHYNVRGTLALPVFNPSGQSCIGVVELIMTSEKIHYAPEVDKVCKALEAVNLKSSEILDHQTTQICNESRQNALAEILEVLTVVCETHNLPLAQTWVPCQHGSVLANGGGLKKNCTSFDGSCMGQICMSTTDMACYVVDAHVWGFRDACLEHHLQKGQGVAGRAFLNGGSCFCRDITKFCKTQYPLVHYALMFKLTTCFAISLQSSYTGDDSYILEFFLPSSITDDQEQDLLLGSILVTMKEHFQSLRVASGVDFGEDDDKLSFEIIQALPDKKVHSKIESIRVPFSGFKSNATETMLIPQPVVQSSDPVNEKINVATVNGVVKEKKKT

Kd [1]: 52 ± 20 µM
Kd [2]: 86 ± 38 µM
Compound: O=[N+]([O-])O [nitrate]
